Reference: patent publication US11391739B2, “Compositions and methods for treating multiple myeloma” (DANA-FARBER CANCER INSTITUTE, INC., priority 2014, dated 2022)

How the values were obtained:
Assay type in all cases: cell-based, human
MM1S-luc cells = assay: Transwell migration assay of MM1S-luc cells
Procedure: For cell migration assays, the top chamber of transwell plates ([…], Corning Costar) was seeded with 2×10^5 MM1S-luc cells, and the bottom chamber was seeded with either medium (0.1% FBS) alone, BMEC-60 cells, BMEC-60 cell-conditioned medium, or plain medium containing CyPA and/or CD147. After 12 hrs of incubation, MM1S-luc cells that had migrated to the bottom chamber were collected and quantified by Xenogen Imaging. Migration of RPMI, U266, CLL, LPL, or primary tumor cells was evaluated by counting the number of unlabeled cells in the lower chamber. Each experiment was done in triplicate and repeated twice. Recombinant HPLC-purified eCyPA was purchased from BioMart Inc. and eCyPB (PPIB) human recombinant protein was purchased from Abnova. In most instances, 50 ng/ml of eCyPA or eCyPB diluted in serum-free RPMI medium was used. CM was collected from confluent cultures of BMEC-60 cells incubated for 48 hours. When needed, the CM was treated with 100 μ/ml proteinase K (19133, Qiagen) for 2 hrs and then deactivated for 15 min at 70° C. Anti-CD147 (UM-8D6) antibody and monoclonal mouse IgG1 (MOPC31C) were obtained from Ancell; anti-CXCR4 (MAB171) was from R&D systems. Migration data were normalized using the data obtained with medium alone. Results are means.±SD for triplicate assays.

H929 and MM1S cells [1] = assay: Proliferation of MM cells ([3H]TdR incorporation)
Procedure: Cell proliferation was evaluated by [^3H]TdR incorporation as described in Mani et al., Cancer Res. 69: 7577-7586 (2009). When proliferation of MM cells was determined in the presence of HS5 or BMEC-60 cells, the latter were previously gamma-irradiated (10,000 rads) and dispensed into 96-well plates. Then, MM1S and H929 cells were co-cultured with either BMEC-60 cells, CM alone, CyPA, or CyPB for 72 hrs. Viability of MM1s-Luc cells were co-cultured with BMEC-60 cells and then treated with drugs as described was assessed, using the tumor cell-specific in vitro bioluminescence imaging (SS-BLI).

[2] = system: H929, OPM2, RPMI and primary MM cells; assay: Transwell migration assay of other MM cell lines and primary MM cells; details: 50 ng/ml recombinant protein
Procedure: FIG. 12. (FIG. 12A) CyPA immunostains in two different NBM, kidney, liver, and lymph node biopsies from healthy subjects. (FIG. 12B) Serum levels of eCyPA in 10 BM aspirates from MGUS and MM patients. (FIG. 12C) Transwell migration assay of MM1S-luc cells incubated in the absence of serum (Medium) or BM serum from two different MM patients with low (PT #4) and high (PT #12) levels of eCyPA (same as FIG. 4I). Migration data was normalized based on data of medium alone. (FIG. 12D) Transwell migration assay of H929, OPM2 and RPMI cells incubated with medium alone or in the presence of 50 ng/ml of recombinant eCyPA. (FIG. 12E) Transwell migration assay of two MM primary tumors (MMPT #1 and MMPT #2) incubated with medium alone or 50 ng/ml of recombinant eCyPA or BMEC-60 cells.
For cell migration assays, the top chamber of transwell plates ([…], Corning Costar) was seeded with 2×10^5 MM1S-luc cells, and the bottom chamber was seeded with either medium (0.1% FBS) alone, BMEC-60 cells, BMEC-60 cell-conditioned medium, or plain medium containing CyPA and/or CD147. After 12 hrs of incubation, MM1S-luc cells that had migrated to the bottom chamber were collected and quantified by Xenogen Imaging. Migration of RPMI, U266, CLL, LPL, or primary tumor cells was evaluated by counting the number of unlabeled cells in the lower chamber. […]

CLL and LPL cells = assay: Transwell migration assay of CLL and LPL cells; details: 50 ng/ml recombinant eCyPA
From the text: FIG. 16. (FIG. 16A) Representative immunostains (top, n=10) and flow cytometric (bottom, n=6) analysis of CD147 expression in BM samples from CLL patients. (FIG. 16B) Representative immunostains (top, n=10) and flow cytometric (bottom, n=6) analysis of CD147 expression in BM samples from LPL patients. (FIG. 16C) Flow cytometry of CD147 (red line) and control isotype (black line) expression in one CLL cell line (HG3) and one primary tumor patient cells (CLLPT #1). (FIG. 16D) Flow cytometry of CD147 (red line) and control isotype (black line) expression in one LPL cell line (BCWM.1) and one primary tumor patient cells (LPLPT #1). […] Migration of primary CLL and LPL tumor patient cells was evaluated in four different samples for each tumor type. […] Unlabeled cell lines and primary tumors were used, and migration was evaluated by counting cells in the bottom chamber. […]
For cell migration assays, the top chamber of transwell plates ([…], Corning Costar) was seeded with 2×10^5 MM1S-luc cells, and the bottom chamber was seeded with either medium (0.1% FBS) alone, BMEC-60 cells, BMEC-60 cell-conditioned medium, or plain medium containing CyPA and/or CD147. After 12 hrs of incubation, MM1S-luc cells that had migrated to the bottom chamber were collected and quantified by Xenogen Imaging. […]

H929 and MM1S cells [3] = assay: Immunoblot analysis of total protein extracts from MM cells
Procedure: Total protein samples were prepared from non-attached H929 and MM1S cells grown in CM from cultures of BMEC-60 or BMEC-1 cells attached for 72 hr. In some experiments, the cells were co-cultured with BMEC-60 cells using transwell chambers (Corning Costar, 0.45 µm pore diameter). Immunoblotting was performed as described in Takada et al., Sci. Transl. Med. 4, 148ra117 (2012). When MM1S and H929 cells were treated with eCyPA or CD147 Ab, they were first incubated with eCyPA or CD147 Ab for 5 hrs in serum-free medium. Then 0.5% serum was added, and incubation was resumed for another 72 hrs before performing protein preparation. Anti-human primary antibodies included: BCL9 (2D4, Abnova), CyPA (ERPR7511, Abcam), CD147 (#13287, Cell Signaling), pSTAT3 (#9131, Cell Signaling), pERK (#4370, Cell Signaling), PARP (#9542, Cell Signaling), pAKT (#9271, Cell Signaling), Active-β-catenin (05-665, Millipore), Factor VIII (A0082, DAKO), MMP-9 (MAB911, R&D), CyPB (MAB5410, R&D), and horseradish peroxidase (HRP)-conjugated actin (C-11, Santa Cruz). Actin Ab was used as a loading control. Secondary antibodies included: anti-rabbit IgG (HRP)-conjugated (W402b, Promega), and anti-mouse IgG (HRP)-conjugated (W401b, Promega). Protein concentrations were measured in triplicate by Bradford assay (BioRad). Optimal antibody concentrations were used according to the manufacturer's recomendations.

| Substance | migration of MM1S-luc cells, CyPB compared with CyPA (MM1S-luc cells; 50 ng/ml each) | proliferation of MM cells (H929 and MM1S cells [1]; tested at much higher concentrations than those in BM serum of MM patients) | migration of other MM cell lines (H929, OPM2, RPMI) [2] | migration of primary MM cells [2] | concentration giving maximal migration response (MM1S-luc cells; MM1S-luc cells) [ng/mL] | lowest concentration inducing significant migration (MM1S-luc cells; MM1S-luc cells) [ng/mL] | migration of MM cells incubated with BMEC-1 transduced with CyPA-shRNAs (MM1S-luc cells; addition of 50 ng/ml recombinant eCyPA) | migration of MM1S-luc cells (MM1S-luc cells; purified recombinant protein, time- and concentration-dependent) | proliferation of H929 and MM1S cells (H929 and MM1S cells [1]; concentration-dependent) | migration of CLL cells (CLL and LPL cells) | migration of LPL cells (CLL and LPL cells) | signaling pathways (Wnt/β-catenin, STAT3, AKT, ERK) in MM cells (H929 and MM1S cells [3]; 50 ng/ml eCyPA vs without) | higher-glycosylated form of CD147 in MM cells (H929 and MM1S cells [3]; CyPA-treated) | expression of matrix metalloprotease 9 (MMP-9) (H929 and MM1S cells [3]; cells treated with eCyPA) | CD147 expression in MM cells (H929 and MM1S cells [3]; concentration-dependent and time-dependent) |
| --- | --- | --- | --- | --- | --- | --- | --- | --- | --- | --- | --- | --- | --- | --- | --- |
| CyPB: eCyPB (PPIB) human recombinant protein purchased from Abnova | Major differences were likewise not observed | induces proliferation |  |  |  |  |  |  |  |  |  |  |  |  |  |
| eCyPA: Recombinant HPLC-purified eCyPA (extracellular cyclophilin A) purchased from BioMart Inc. |  |  | induced migration | induced migration | 50 | 6 | restored migration | promoted migration | enhanced | enhanced migration | enhanced migration | activation of several signaling pathways | increased | increased | dramatically increased |
